From article PMC2688463 (Journal of medicinal chemistry, 2008)

Experiments:
[1] = tested on: MDA-MB-231 breast cancer cell line; test: Cell growth assay; assay type: cell-based, human
[2] = tested on: SK-OV-3 ovarian cancer cell line; test: Cell growth assay; assay type: cell-based, human
MDA-MB-231 cell line = test: Apoptosis assay; assay type: cell-based, human; details: 100 nM, 48 hours
[3] = molecular target: recombinant human XIAP BIR3 protein (Homo sapiens, UniProt P98170); test: Cell-free caspase-9 functional assay; assay type: biochemical; details: at concentrations as high as 100 μM
recombinant human XIAP BIR3 protein, sequence (P98170 241-356): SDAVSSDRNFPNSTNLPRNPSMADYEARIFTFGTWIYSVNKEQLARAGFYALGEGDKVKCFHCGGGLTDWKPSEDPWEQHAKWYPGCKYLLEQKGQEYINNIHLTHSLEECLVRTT

Compound: CC[C@H](N)C(=O)N[C@H]1CCCC[C@H]2CC[C@@H](C(=O)NC(c3ccccc3)c3ccccc3)N2C1=O [Compound 17, (3S,6S,11S)-6-((S)-2-Amino-butyrylamino)-5-oxo-decahydro-pyrrolo[1,2-α]azocine-3-carboxylic acid benzhydryl-amide]
- cellular activity (cell growth inhibition) [1]: weak cellular activity
- cellular activity (cell growth inhibition) [2]: weak cellular activity

Compound: CN[C@@H](C)C(=O)N[C@H]1CCCC[C@H]2CC[C@@H](C(=O)NC(c3ccccc3)c3ccccc3)N2C1=O [Compound 20, (3S,6S,11S)-6-((S)-2-Methylamino-propionylamino)-5-oxo-decahydro-pyrrolo[1,2-α]azocine-3-carboxylic acid benzhydryl-amide]
- induction of apoptosis (MDA-MB-231 cell line): robust apoptosis

Compound: CC[C@H](NC)C(=O)N[C@H]1CCCC[C@H]2CC[C@@H](C(=O)NC(c3ccccc3)c3ccccc3)N2C1=O [Compound 21, (3S,6S,11S)-6-((S)-2-Methylamino-butyrylamino)-5-oxo-decahydro-pyrrolo[1,2-α]azocine-3-carboxylic acid benzhydryl-amide]
- induction of apoptosis (MDA-MB-231 cell line): robust apoptosis

Compound: C[C@H](O)C(=O)N[C@H]1CCCC[C@H]2CC[C@@H](C(=O)NC(c3ccccc3)c3ccccc3)N2C1=O [Compound 24]
- restoration of caspase-9 activity [3]: no significant effect
- times less potent than compound 25 in cell growth inhibition [1]: > 30 times
- times less potent than compound 25 in cell growth inhibition [2]: > 30 times
